Test results taken from patent publication US20090155875A1, “Methods to Enhance Carbon Monoxide Dehydrogenase Activity and Uses Thereof” (priority 2005, published 2009).

Columns and labels:
[1] = test system: Hydrogenase; assay: Hydrogenase activity in whole cells by H2 evolution (gas chromatography); format: cell-based, R. rubrum
Method: Hydrogenase activity was determined using whole cells by measuring H2 evolution in an anaerobic reaction mixture containing 2 mM methyl viologen, 0.1% (w/v) Triton X-100 and 50 mM potassium phosphate buffer at pH 7.0. The reaction was initiated by adding 5 mM sodium dithionite. The reaction was incubated 15 minutes at 30° C. in a shaking water bath. The reaction was terminated by addition of 0.1 ml 10% (w/v) tricholoroacetic acid. Hydrogen in the gas phase was determined by gas chromatography as described in Maness, P. C. and Weaver, P. F. (2001) Appl. Microbiol. Biotechnol. 57:751-6.

[2] = test system: CODH; assay: CODH activity by reduction of methyl viologen coupled to CO oxidation (absorption at 578 nm); format: biochemical, R. rubrum
Sequence of CODH (P31896 2-639): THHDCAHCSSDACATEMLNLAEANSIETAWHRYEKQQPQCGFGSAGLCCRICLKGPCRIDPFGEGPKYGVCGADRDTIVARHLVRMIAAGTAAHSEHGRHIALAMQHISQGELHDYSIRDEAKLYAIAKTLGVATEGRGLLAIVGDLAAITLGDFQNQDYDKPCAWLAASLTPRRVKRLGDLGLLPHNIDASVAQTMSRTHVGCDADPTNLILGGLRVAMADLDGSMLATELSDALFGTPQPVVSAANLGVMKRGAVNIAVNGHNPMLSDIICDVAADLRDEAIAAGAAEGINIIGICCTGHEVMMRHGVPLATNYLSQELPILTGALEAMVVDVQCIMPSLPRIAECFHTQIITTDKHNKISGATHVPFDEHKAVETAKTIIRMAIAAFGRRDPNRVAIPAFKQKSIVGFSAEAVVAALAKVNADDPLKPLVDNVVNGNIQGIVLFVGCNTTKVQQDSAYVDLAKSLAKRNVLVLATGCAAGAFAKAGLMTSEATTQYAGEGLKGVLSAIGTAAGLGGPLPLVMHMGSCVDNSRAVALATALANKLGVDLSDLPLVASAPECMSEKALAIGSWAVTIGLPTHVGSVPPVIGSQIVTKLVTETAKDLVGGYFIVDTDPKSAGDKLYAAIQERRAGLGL
Method: CODH activity was determined by the reduction of methyl viologen coupled to CO oxidation and the concomitant absorption at 578 nm by UV spectrophotometry. CODH activity was measured in an anaerobic reaction mixture containing 50 mM Tris-HCl, 2 mM methyl viologen and 2 mM dithiothreitol at pH 8.7 (Maness, P. C. and Weaver, P. F. (2002) Int. J. Hydrogen Energy 27:1407-11). The cell free, CODH-enriched fraction was prepared as described (Maness, P. C. and Weaver, P. F. (2001) Appl. Microbiol. Biotechnol. 57:751-6). The supernatant was used as the source of CODH enzyme.

hemoglobin: human α- and β-globin chains encoded in pHE2 plasmid; purified from E. coli and added, or expressed in the cells
hydrogenase activity ([1]; expression of hemoglobin in the cells, p<0.02): 250.4±89.1 nMol H2/min/mg cell dry weight
hydrogenase activity ([1]; first statement, printed as 'hemoglobin expression', untreated 137.6±15.0, p<2×10^−6): 266.9±27.0 nMol H2/min/mg cell dry weight
CODH activity ([2]; addition of hemoglobin (soluble, final 1.5 μM heme), untreated 17.76±2.85, p<9×10^−6): 32.41±4.03 μmol methyl viologen reduction/min/ml
CODH activity ([2]; expression of hemoglobin in the cells (pHE2 plasmid, IPTG induced), p<0.005): 29.60±7.30 μMol methyl viologen reduction/min/ml
